{
  "source": "patent US20080214623A1",
  "about": "“N-(2,2-Dimethylpropyl)-6- -3-Pyridinecarboxamide” (priority 2005, published 2008)",
  "key": {"Recombinant human p38α": {"target": "T1, Recombinant human p38α (Homo sapiens, UniProt Q16539)", "T1 construct": "GST; made in house", "T1 sequence (Q16539 whole entry)": "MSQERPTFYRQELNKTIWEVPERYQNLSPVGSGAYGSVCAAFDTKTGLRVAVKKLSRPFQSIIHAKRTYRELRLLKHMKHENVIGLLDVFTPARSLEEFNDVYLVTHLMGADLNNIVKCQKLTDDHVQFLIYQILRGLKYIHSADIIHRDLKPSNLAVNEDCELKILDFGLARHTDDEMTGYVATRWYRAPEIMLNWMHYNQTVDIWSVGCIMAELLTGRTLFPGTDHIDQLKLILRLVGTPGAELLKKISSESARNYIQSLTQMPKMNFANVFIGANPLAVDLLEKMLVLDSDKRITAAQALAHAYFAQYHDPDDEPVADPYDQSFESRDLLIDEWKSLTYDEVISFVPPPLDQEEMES", "experiment": "Fluorescence anisotropy kinase binding assay", "details": "12 nM p38α, 5 nM fluorescent ligand", "procedure": "Assay 1: Fluorescence Anisotropy Kinase Binding Assay\nThe concentration of kinase enzyme should preferably be 2×Kf. The concentration of fluorescent ligand required will depend on the instrumentation used, and the fluorescent and physicochemical properties. The concentration used must be lower than the concentration of kinase enzyme, and preferably less than half the kinase enzyme concentration.\nRecombinant human p38α was expressed as a GST-tagged protein. To activate this protein, 3.5 μM unactivated p38α was incubated in 50 mM Tris-HCl pH 7.5, 0.1 mM EGTA, 0.1% 2-mercaptoethanol, 0.1 mM sodium vanadate, 10 mM MgAc, 0.1 mM ATP with 200 nM MBP-MKK6 DD at 30 degrees for 30 mins. Following activation p38α was re-purified and the activity assessed using a standard filter-binding assay.\nAll components are dissolved in buffer of composition 62.5 mM HEPES, pH 7.5, 1.25 mM CHAPS, 1 mM DTT, 12.5 mM MgCl2 with final concentrations of 12 nM p38α and 5 nM fluorescent ligand. 30 μl of this reaction mixture is added to wells containing 1 μl of various concentrations of test compound (0.28 nM-16.6 μM final) or DMSO vehicle (3% final) in NUNC 384 well black microtitre plate and equilibrated for 30-60 mins at room temperature. Fluorescence anisotropy is read in Molecular Devices Acquest (excitation 485 nm/emission 535 nm).\nDefinitions: Ki=dissociation constant for inhibitor binding […]"}, "[1]": {"system": "TNFα production in LPS-stimulated leukocytes (human whole blood)", "experiment": "TNFα production in human whole blood (LPS-stimulated)", "assay_type": "cell-based", "details": "Leukocyte, 1 hr preincubation, LPS 50 ng/ml, 20 hours", "description": "Assay 2: TNFα Production in Human Whole Blood\np38 Mitogen-activated protein (MAP) kinase (p38) regulates the biosynthesis of pro-inflammatory cytokines such as TNFα. The potency as an inhibitor of cytokine production can thus be assessed by measuring the effects on TNFα production in LPS-stimulated leukocytes. Carrying the assay out on whole blood rather than isolated leukocytes gives a measure of whole cell potency of the compound in the presence of plasma protein and cells, particularly red blood cells that in vivo are likely to lower circulating free drug concentrations. […] The concentrations of TNF in the original whole blood assay supernatants can then be determined from a standard curve generated using authentic human TNFα.\nHeparinised blood drawn from normal volunteers was dispensed (100 μl) into microtitre plate wells containing 0.5 or 1.0 μl of an appropriately diluted compound solution. […] Plasma TNFα content was determined by electrochemiluminescence assay using the IGEN technology. […]\nTNF assay plates (MSD: cat L41IB-1) were blocked overnight with 20 μl human serum cytokine diluent (MSD). […] 150 μl 2× read buffer T (MSD Cat R92TC-1) was added to the whole blood plates and 90 μl 2.5× read buffer P (MSD Cat R92PC-1) to the PBMC plates and all plates read in the MSD Sector Imager 6000 electrochemiluminescence reader."}},
  "data": [
    {"smiles": "Cc1c(F)cc(C(=O)Nc2ccon2)cc1-c1ccc(C(=O)NCC(C)(C)C)cn1", "note": "[Example 1]", "values": [
      {"measurement": "IC50", "setting": "Recombinant human p38α", "value": "< 50", "unit": "nM"},
      {"measurement": "IC50", "setting": "[1]", "value": "< 50", "unit": "nM"}
    ]}
  ]
}
